According to patent publication US20240082228A1, “SARS-COV-2 THERAPEUTICS” (priority 2021, published 2024):
Values joined by “and” are separate entries in the source; they are usually repeats but may differ in a detail not shown here. Equal entries are not always repeated. Where two headings read alike, the source gives them in different places.

Experiments:
[1] = test system: SARS-CoV-2; test: microbe, parasite or virus in culture; assay type: cell-based; settings: for activity at 1 µM: Severe acute respiratory syndrome coronavirus 2, 1 uM, read-out: Normalized Infection (1 uM); for HIT: overall, 1 or 5 uM
[2] = for Average Cell Number (1 uM) / Cell Number (1 uM) / Normalized Cell Number (1 uM): compound at 1 uM; for Average Cell Number (1 uM) / Average Cell Number (5 uM): average of normalized cell number, n=3, relative to DMSO; for Cell Number (1 uM) / Normalized Cell Number (1 uM) / Cell Number (5 uM) / Normalized Cell Number (5 uM): single replicate; for Cell Number (1 uM) / Cell Number (5 uM): raw cell count; for Normalized Cell Number (1 uM) / Normalized Cell Number (5 uM): relative to negative control DMSO; for Average Cell Number (5 uM) / Cell Number (5 uM) / Normalized Cell Number (5 uM): compound at 5 uM
[3] = 1 uM, average log2FC infection (n=3) relative to DMSO
[4] = 5 uM, average log2FC infection (n=3) relative to DMSO
[5] = single replicate, relative to negative control DMSO
[6] = 1 uM, single replicate, relative to negative control DMSO
[7] = 5 uM, single replicate, relative to negative control DMSO

C#C[C@]1(O)CC[C@H]2[C@@H]3CCC4=CCCC[C@@H]4[C@H]3C(=C)C[C@@]21CC [Desogestrel, desogestrel]
HIT (2 Std, 1 uM) ([1]; 1 uM): HIT | Average Infection (1 uM) [1, 3]: −0.4489 | Average Infection (5 uM) [1, 4]: −0.1002 | activity at 1 µM [1, 5]: 80.9% | activity at 5 µM ([1]; Severe acute respiratory syndrome coronavirus 2, 5 uM, single replicate, relative to negative control DMSO, read-out: Normalized Infection (5 uM)): 87% | HIT [1]: Yes | Toxic (1 uM) [2]: 0 (non-toxic (Normalized Cell number>0.65) | Toxic (5 uM) [2]: 0 (non-toxic (Normalized Cell number>0.65) | Average Cell Number (1 uM) [2]: 0.8768 | Cell Number (1 uM) [2]: 5131 and 5212 and 5072 | Normalized Cell Number (1 uM) [2]: 0.8756 and 0.8894 and 0.8655 | Average Cell Number (5 uM) [2]: 0.9255 | Cell Number (5 uM) [2]: 5708 and 5824 and 4922 | Normalized Cell Number (5 uM) [2]: 0.9632 and 0.9828 and 0.8305

C#C[C@]1(O)CC[C@H]2[C@@H]3CCC4=CC(=O)CC[C@@H]4[C@H]3C(=C)C[C@@]21CC [Etonogestrel, etonogestrel]
HIT (2 Std, 1 uM) ([1]; 1 uM): HIT | Average Infection (1 uM) [1, 3]: −0.4065 | HIT (2 Stdv, 5 uM) ([1]; 5 uM): HIT | Average Infection (5 uM) [1, 4]: −1.187 | activity at 1 µM [1, 5]: 72% | HIT [1]: Yes | Toxic (1 uM) [2]: 0 (non-toxic (Normalized Cell number>0.65) | Average Cell Number (1 uM) [2]: 0.734 | Cell Number (1 uM) [2]: 4255 and 4398 and 4251 | Normalized Cell Number (1 uM) [2]: 0.7261 and 0.7505 and 0.7254 | Average Cell Number (5 uM) [2]: 0.5829

CS(=O)(=O)N1CCN(Cc2cc3nc(-c4cccc5[nH]ncc45)nc(N4CCOCC4)c3s2)CC1 [GDC-0941, pictilisib]
HIT (2 Std, 1 uM) ([1]; 1 uM): HIT | Average Infection (1 uM) [1, 3]: −2.374 | HIT (2 Stdv, 5 uM) ([1]; 5 uM): HIT | Average Infection (5 uM) [1, 4]: −2.82 | activity at 1 µM [1, 5]: 14.6% | HIT [1]: Yes | Toxic (1 uM) [2]: 0 (non-toxic (Normalized Cell number>0.65) | Toxic (5 uM) [2]: 0 (non-toxic (Normalized Cell number>0.65) | Average Cell Number (1 uM) [2]: 0.7899 | Cell Number (1 uM) [2]: 4447 and 4698 and 4741 | Normalized Cell Number (1 uM) [2]: 0.7589 and 0.8017 and 0.809 | Average Cell Number (5 uM) [2]: 0.8826 | Cell Number (5 uM) [2]: 5415 and 4385 and 5891 | Normalized Cell Number (5 uM) [2]: 0.9137 and 0.7399 and 0.9941

CC(C)N1CCN(Cc2cnc(-c3cc(-c4cccc5[nH]ccc45)cc4[nH]ncc34)o2)CC1 [GSK2269557, nemiralisib]
Average Infection (1 uM) [1]: −0.7144 | Average Infection (5 uM) [1]: −3.347 | HIT (2 Std, 1 uM) ([1]; 1 uM): HIT | % Infection (1 uM) ([1]; 1 uM, single replicate of triplicate): 17.26% and 15.32% and 15.51% | Normalized Infection (1 uM) [1, 6]: 0.6572 and 0.5833 and 0.5904 | log2FC Infection (1 uM) [1, 6]: −0.6055 and −0.7776 and −0.7601 | HIT (2 Stdv, 5 uM) ([1]; 5 uM): HIT | % Infection (5 uM) ([1]; 5 uM, single replicate of triplicate): 1.292% and 0.4698% and 5.713% | Normalized Infection (5 uM) [1, 7]: 0.08388 and 0.03051 and 0.371 | log2FC Infection (5 uM) [1, 7]: −3.575 and −5.034 and −1.43 | HIT [1]: Yes | Toxic (1 uM) [2]: 0 (non-toxic (Normalized Cell number>0.65) | Toxic (5 uM) [2]: 0 (non-toxic (Normalized Cell number>0.65) | Average Cell Number (1 uM) [2]: 0.8919 | Cell Number (1 uM) [2]: 4831 and 5665 and 5184 | Normalized Cell Number (1 uM) [2]: 0.8244 and 0.9667 and 0.8846 | Average Cell Number (5 uM) [2]: 0.7914 | Cell Number (5 uM) [2]: 4568 and 3831 and 5671 | Normalized Cell Number (5 uM) [2]: 0.7708 and 0.6465 and 0.9569
